These results are taken from patent US9302993B2, “8-hydroxy quinoline derivatives” (PRANA BIOTECHNOLOGY LIMITED, priority 2002, dated 2016).

Values joined by “and” are separate entries in the source; they are usually repeats but may differ in a detail not shown here. Equal entries are not always repeated. Where two headings read alike, the source gives them in different places.

Data set [1] concerns APP2576 transgenic mouse. Kind of data set: Transgenic mouse brain immunohistochemistry, plaque abundance (Assay 15). The class given is in vivo. To be noted: for % difference from control (sham treated animal): plaque score; for Mean plaque score: scale 0 to 4. The text has this: Assay 15. Transgenic Mouse Brain Immunohistochemistry
The APP2576 transgenic mouse (Hsiao et al., 1996) as referred to in Assay 11 were utilized in this assay. The contralateral formalin-fixed mouse brain tissue was coronally cut. Sections (10 μm) were taken from the corresponding sites and treated with 80% formic acid for antigen retrieval. The primary antibody used was monoclonal antibody 1E8, which recognizes epitopes between residues 18 and 22 of Aβ (SmithKline Beecham, UK). Immunoreactivity was developed with secondary antibody linked to horseradish peroxidase (using a 3,39-diaminobenzidinechromagen) (Dako) and alkaline phosphatase (using 5-bromo-4-chloro 3-indoxyl phosphate and nitroblue tetrazolium chloride chromagen) (Dako). Plaque abundance per section was assessed by two operators blinded to treatment according to the following scale:
1=plaques present but very sparse
2=several plaques present
3=numerous plaques visible in restricted areas
4=plaques abundant and not restricted to any particular area.
Intermediate values eg 2.5 were assigned where applicable.
Students' t ‘test was used for comparisons between groups.

The test system of data set [2] is Neuronal cortical cells treated with Aβ1-42. Kind of data set: Assay for Aβ neurotoxicity and Aβ neuroprotection (Assay 3(c)). The class given is cell-based, mouse. To be noted: 20 uM Aβ1-42, 4 days, MTS.
The nature of data set [3]: Pharmacokinetic profile, IV and oral (Assay 16). The class given is in vivo. Conditions: rat; for BA (%): oral, calculated using the truncated AUC; for clearance: read-out: Cltotal (mL/min/Kg), total plasma clearance. The method, then:
Assay 16. Pharmacokinetic Profile
• Intravenous infusion of PBT-1033; 2 mg/Kg (1 mL of a 0.5 mg/mL solution in 7.5% DMSO with 0.1 m Captisol in Citrate Buffer adjusted to pH 3.0) was administered over 5 minutes to 2 rats and arterial blood was sampled up to 24 hours. • Oral administration of PBT-1033; 30 mg/Kg (as a suspension in CMC-SSV*) via administered via oral gavage to 2 rats and arterial blood was sampled up to 26 hours. * Standard Suspending Vehicle—0.5% w/v Na-Carboxymethyl Cellulose (CMC), 5% v/v benzyl alcohol, 4% v/v Tween 80 in 0.9% NaCl. • Plasma concentrations of PBT-1033 were determined by LCMS (LOQ 3.7 nM). For rat 020710-D, an overlapping peak was present for PBT-1033.
[formula] [formula] [formula] Calculations: • CLtotal=total plasma clearance after IV administration • Vdβ=volume of distribution during the elimination phase after IV administration • BA=oral bioavailability • AUCIV=area under the plasma concentration versus time profile from time zero to infinity after IV administration • AUCoral=area under the plasma concentration versus time profile from time zero to infinity after oral administration • β=terminal elimination rate constant after IV administration • The results are shown in FIG. 4(a). (b) PBT-1038 • Intravenous infusion of PBT-1038; (0.5 mg/Kg in 7.5% DMSO in Citrate Buffer pH 3.0) was administered over 5 minutes to 2 rats and arterial blood was sampled up to 24 hours. • Oral administration of PBT-1038; (30 mg/Kg as a 0.05% CMC suspension) via administered via oral gavage to 2 rats and arterial blood was sampled up to 24 hours. • Plasma concentrations of PBT-1038 were determined by MS (LOQ 3 nM)
(c) PBT-1050 • Intravenous infusion of PBT-1050; (2 mg/Kg in 7.5% DMSO in Citrate Buffer pH 3.0) was administered over 5 minutes to 2 rats and arterial blood was sampled up to 24 hours. • Oral administration of PBT-1050; (30 mg/Kg as a 0.05% CMC suspension) was administered via oral gavage to 2 rats and arterial blood was sampled up to 24 hours. • Plasma concentrations of PBT-1050 were determined by MS (LOQ 3 nM)
(d) PBT-1051 • Intravenous infusion of PBT-1051; 2 mg/Kg (1 mL of a 0.6 mg/mL solution in 7.5% DMSO in Citrate Buffer pH 3.0) was administered over 5 minutes to 2 rats and arterial blood was sampled up to 24 hours. • Oral administration of PBT-1051; 30 mg/Kg (as a suspension in CMC-SSV*) was administered via oral gavage to 2 rats and arterial blood was sampled up to 24 hours. * Standard Suspending Vehicle—0.5% w/v Na-Carboxymethyl Cellulose (CMC), 5% v/v benzyl alcohol, 4% v/v Tween 80 in 0.9% NaCl. • Plasma concentrations of PBT-1051 were determined by LCMS (LOQ 3.7 nM)

The test system of data set [4] is APP2576 transgenic mouse. Kind of data set: Effect of administration of test compounds on Aβ deposits in transgenic animals (Assay 11). In kind it is in vivo. More on the design: concentration or dose not given beside the values. Conditions: transgenic mouse brains; for Insoluble fraction. % change compared with control.: insoluble Aβ; for Soluble fraction. % change compared with control.: soluble Aβ.

Setting [5] is: IV, individual rats, listed as PBT 1051, hydrochloride.
Setting [6] is: PO 30 mg/Kg, individual rats, listed as PBT 1051, hydrochloride, 30 mg/kg.
Setting [7] is: plasma, po, 30 mg/kg, PO 30 mg/Kg, Mean ± SD.
The mark [8] stands for this setting: plasma, po, 30 mg/kg, PO 30 mg/Kg, Mean ± SD, read-out: Tmax (converted).
The mark [9] stands for this setting: plasma, po, 30 mg/kg, PO 30 mg/Kg, individual rats.
The mark [10] stands for this setting: plasma, po, 30 mg/kg, PO 30 mg/Kg, individual rats, read-out: Tmax (converted).
The mark [11] stands for this setting: IV, individual rats, listed as PBT 1033, hydrochloride.
The mark [12] stands for this setting: PO 30 mg/Kg, individual rats, listed as PBT 1033, hydrochloride, 30 mg/kg.
The mark [13] stands for this setting: PO 30 mg/Kg, individual rats, listed as PBT 1050, 30 mg/kg.

Take `CCNCc1ccc2c(Cl)cc(Cl)c(O)c2n1.Cl` [compound 1051, 5,7-dichloro-2-ethylaminomethyl-quinolin-8-ol hydrochloride]: the “% difference from control (sham treated animal)” value (“% difference from control” for short) with APP2576 transgenic mouse [1] is on record as −39%. Also, the Mean plaque score with APP2576 transgenic mouse [1] came out at 2.13. In addition, in data set [2], the “% inhibition Abeta toxicity” value came out at 23%. Moreover, the “VdB” value in data set [3] (IV, Mean ± SD) was 9.64 ± 0.77 L/kg; in data set [3] (setting [5]), 10.19 L/kg and 9.10 L/kg. In data set [3] (setting [5]), the “Cltotal (mL/min/Kg), total plasma clearance” value is 135.58 mL/min/kg. The Cmax (usually the highest concentration seen after dosing) in data set [3] (setting [5]) was 3.03 µM; in data set [3] (setting [6]), 3.18 µM and 1.5 µM; in data set [3] (plasma, iv, Mean ± SD) it was 2.99 ± 0.05 µM; in data set [3] (plasma, iv, individual rats), 2.96 µM; in data set [3] (setting [7]), 2.34 ± 1.18 µM. Also, the “t1/2” value stood at 46.52 min in data set [3] (setting [5]) and 365.72 min in data set [3] (setting [6]). Also, the Tmax (usually the time from dosing to the highest level) in data set [3] (setting [6]) was 30 min; in data set [3] (setting [8]), 45 min; in data set [3] (setting [10]), 60 min. In addition, the “BA (%)” value is 27.75 ± 14.43% in data set [3] (Mean ± SD); 37.96% and 17.55% in data set [3] (individual rats, listed as PBT 1051, hydrochloride). Also, the clearance in data set [3] (plasma, iv, 2 mg/Kg, IV, Mean ± SD) turned out to be 144 ± 12.5 mL/min/kg; in data set [3] (plasma, iv, 2 mg/Kg, IV, individual rats) it was 153 mL/min/kg. For the same molecule, the half-life (commonly the time in which the quantity being followed falls by half) in data set [3] (plasma, iv, 2 mg/Kg, Mean ± SD) is 46.3 ± 0.32 min; in data set [3] (plasma, iv, 2 mg/Kg, individual rats) it was 46.1 min; in data set [3] (setting [7]), 283 ± 117 min; in data set [3] (setting [9]), 200 min. For the same molecule, in the data set on APP2576 transgenic mouse [4], the “Insoluble fraction. % change compared with control.” value (from here on “Insoluble fraction. % change”) was −21%. Also, the “Soluble fraction. % change compared with control.” value in the data set with APP2576 transgenic mouse [4] is “negligible”.

On to `CN(C)Cc1ccc2c(Cl)cc(Cl)c(O)c2n1.Cl` [compound 1033, 5,7-Dichloro-2-dimethylaminomethyl-quinolin-8-ol hydrochloride], for which the “% difference from control” value in the data set with APP2576 transgenic mouse [1] is recorded as −41%. In addition, the Mean plaque score in the data set on APP2576 transgenic mouse [1] is reported as 2.06. Besides, in data set [2], the “% inhibition Abeta toxicity” value was 38%. In addition, the “VdB” value was 9.03 ± 3.07 L/kg in data set [3] (IV, Mean ± SD); 6.86 L/kg and 11.20 L/kg in data set [3] (setting [11]). The “Cltotal (mL/min/Kg), total plasma clearance” value in data set [3] (setting [11]) came out at 145.69 mL/min/kg. In addition, the Cmax in data set [3] (setting [11]) is 0.7 µM and 2.48 µM; in data set [3] (setting [12]), 1.36 µM; in data set [3] (plasma, iv, 2 mg/kg, Mean ± SD) it was 1.59 ± 1.26 µM; in data set [3] (setting [7]), 1.69 ± 0.47 µM; in data set [3] (setting [9]), 2.02 µM. Moreover, the “Tmax” value in data set [3] (setting [11]) is 20 min and 5 min; in data set [3] (setting [12]) it was 60 min; in data set [3] (plasma, iv, 2 mg/kg, IV, Mean ± SD, read-out: Tmax (converted)), 12.5 min; in data set [3] (setting [8]), 52.5 min; in data set [3] (setting [10]), 45 min. In addition, the “t1/2” value in data set [3] (setting [11]) is reported as 53.29 min. The “BA (%)” value in data set [3] (Mean ± SD) is 25.25 ± 0.29%; in data set [3] (individual rats, listed as PBT 1033, hydrochloride), 25.45% and 25.04%. Moreover, the clearance in data set [3] (plasma, iv, 2 mg/kg, IV, Mean ± SD) amounted to 118 ± 38.7 mL/min/kg; in data set [3] (plasma, iv, 2 mg/kg, IV, individual rats), 91 mL/min/kg. Besides, the half-life in data set [3] (plasma, iv, 2 mg/kg, Mean ± SD) turned out to be 52.8 ± 0.73 min; in data set [3] (plasma, iv, 2 mg/kg, individual rats) it was 52.2 min. Besides, in the data set with APP2576 transgenic mouse [4], the “Insoluble fraction. % change” value is given as −29%. The “Soluble fraction. % change compared with control.” value in the data set with APP2576 transgenic mouse [4] is −37%.

For `O=C(NCCc1c[nH]cn1)c1ccc2c(Cl)cc(Cl)c(O)c2n1` [compound 1038, 5,7-Dichloro-8-hydroxyquinoline-2-carboxylic acid [2-(1H-imidazol-4-yl)-ethyl]-amide], the “% difference from control” value with APP2576 transgenic mouse [1] was −17%. Moreover, the Mean plaque score in the data set with APP2576 transgenic mouse [1] was found to be 3.0. Besides, the “% inhibition Abeta toxicity” value in data set [2] worked out at 19%. Also, the Cmax in data set [3] (IV, individual rats, listed as PBT 1038) is 8.06 µM and 2.84 µM; in data set [3] (PO 30 mg/Kg, individual rats, listed as PBT 1038, 30 mg/kg), 68.5 µM; in data set [3] (plasma, iv, Mean ± SD), 5.45 ± 3.7 µM; in data set [3] (setting [7]), 63.1 ± 7.57 µM; in data set [3] (setting [9]), 57.8 µM. The “Tmax” value in data set [3] (PO 30 mg/Kg, individual rats) is 45 min; in data set [3] (setting [8]) it was 45 min; in data set [3] (setting [10]) it was 45 min. The “Insoluble fraction. % change” value in the data set with APP2576 transgenic mouse [4] was −37%. In addition, the “Soluble fraction. % change compared with control.” value with APP2576 transgenic mouse [4] is given as “negligible”.

Take `Cn1cnc(CCNC(=O)c2ccc3c(Cl)cc(Cl)c(O)c3n2)c1` [compound 1050, 5,7-dichloro-8-hydroxyquinoline-2-carboxylic acid [2-(1-methyl-1H-imidazol-4-yl)-ethyl]-amide]: in data set [2], the “% inhibition Abeta toxicity” value stood at 6%. Also, the Cmax in data set [3] (IV, individual rats, listed as PBT 1050) was 33.9 µM and 16.9 µM; in data set [3] (setting [13]), 61 µM and 7.03 µM; in data set [3] (plasma, iv, 2 mg/kg, Mean ± SD), 25.4 ± 12.1 µM; in data set [3] (setting [7]), 34 ± 38.2 µM. Further, the “Tmax” value is 45 min and 120 min in data set [3] (setting [13]); 82.5 min in data set [3] (setting [8]).
